Assays:
[1] = based on toxicity study in Wistar rats
Experimental: For DOTA-MGS5, a toxicity study in Wistar rats was carried out in a GLP-compliant laboratory.

HER2 = molecular target: T1, HER2 (Homo sapiens, UniProt P04626); experiment: Binding by flow cytometry; conditions: BT-474 / MCF-7, cell line not stated
T1 construct: flow cytometry in BT-474 (high HER2 density) and MCF-7 (low HER2 density); endogenous in cells; host or cells: BT-474 and MCF-7 cells

fibrin = fibrin (UniProt P02679); experiment: binding of the radiolabelled pept
[2] = molecular target: human cholecystokinin-2 receptor (CCK2R) (human) (UniProt P32239); experiment: radioligand binding
human cholecystokinin-2 receptor (CCK2R) (human), sequence (P32239 whole entry): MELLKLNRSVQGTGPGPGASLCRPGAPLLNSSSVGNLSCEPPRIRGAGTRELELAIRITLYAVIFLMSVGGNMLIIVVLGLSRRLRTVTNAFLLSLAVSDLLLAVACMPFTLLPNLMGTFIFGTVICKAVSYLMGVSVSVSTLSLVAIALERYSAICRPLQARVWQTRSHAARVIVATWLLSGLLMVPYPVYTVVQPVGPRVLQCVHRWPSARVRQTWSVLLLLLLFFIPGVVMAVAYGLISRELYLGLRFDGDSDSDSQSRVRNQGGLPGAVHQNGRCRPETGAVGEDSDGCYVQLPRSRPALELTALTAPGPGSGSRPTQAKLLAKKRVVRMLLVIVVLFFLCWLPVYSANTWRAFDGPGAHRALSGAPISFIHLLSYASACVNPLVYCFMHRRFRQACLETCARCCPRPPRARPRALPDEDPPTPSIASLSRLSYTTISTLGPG

[3] = molecular target: rat cholecystokinin-2 receptor (CCK2R) (rat) (UniProt P30553); experiment: radioligand binding
rat cholecystokinin-2 receptor (CCK2R) (rat), sequence (P30553 whole entry): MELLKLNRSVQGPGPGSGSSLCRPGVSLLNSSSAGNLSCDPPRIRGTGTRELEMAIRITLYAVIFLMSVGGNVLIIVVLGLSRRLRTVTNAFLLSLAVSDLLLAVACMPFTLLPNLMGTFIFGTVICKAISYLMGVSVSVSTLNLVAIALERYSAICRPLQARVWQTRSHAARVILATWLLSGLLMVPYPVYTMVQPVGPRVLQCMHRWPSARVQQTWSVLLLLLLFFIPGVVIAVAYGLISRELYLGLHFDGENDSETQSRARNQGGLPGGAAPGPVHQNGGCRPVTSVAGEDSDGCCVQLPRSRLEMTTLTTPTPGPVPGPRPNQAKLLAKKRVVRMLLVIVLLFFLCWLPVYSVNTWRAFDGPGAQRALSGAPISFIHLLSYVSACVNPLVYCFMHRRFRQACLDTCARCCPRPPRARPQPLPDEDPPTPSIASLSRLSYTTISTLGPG

[4] = 37 °C, after 6 h
Experimental: (§1) The stability of the radiolabeled peptide in human plasma and normal saline as well as partition coefficient (LogP) was determined. The effect of the peptide on platelet aggregation and the percent of binding radiopeptide to fibrin were studied.

CXCR4 [5] = molecular target: CXCR4 (UniProt P61073); experiment: competitive binding assay on cells with a fluorescent ligand
CXCR4, sequence (P61073 whole entry): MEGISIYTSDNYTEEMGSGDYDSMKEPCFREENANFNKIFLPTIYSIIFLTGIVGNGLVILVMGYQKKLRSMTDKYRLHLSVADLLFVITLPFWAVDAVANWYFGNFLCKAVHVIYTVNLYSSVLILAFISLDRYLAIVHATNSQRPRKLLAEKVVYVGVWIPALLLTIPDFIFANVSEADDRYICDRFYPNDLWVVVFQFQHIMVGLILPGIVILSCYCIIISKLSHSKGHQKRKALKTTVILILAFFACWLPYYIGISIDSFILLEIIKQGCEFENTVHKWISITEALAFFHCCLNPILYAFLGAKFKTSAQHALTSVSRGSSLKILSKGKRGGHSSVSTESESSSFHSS

[6] = molecular target: glucagon-like peptide-1 (GLP-1) receptor (UniProt P43220); experiment: competitive binding assay on cells
glucagon-like peptide-1 (GLP-1) receptor, sequence (P43220 24-463): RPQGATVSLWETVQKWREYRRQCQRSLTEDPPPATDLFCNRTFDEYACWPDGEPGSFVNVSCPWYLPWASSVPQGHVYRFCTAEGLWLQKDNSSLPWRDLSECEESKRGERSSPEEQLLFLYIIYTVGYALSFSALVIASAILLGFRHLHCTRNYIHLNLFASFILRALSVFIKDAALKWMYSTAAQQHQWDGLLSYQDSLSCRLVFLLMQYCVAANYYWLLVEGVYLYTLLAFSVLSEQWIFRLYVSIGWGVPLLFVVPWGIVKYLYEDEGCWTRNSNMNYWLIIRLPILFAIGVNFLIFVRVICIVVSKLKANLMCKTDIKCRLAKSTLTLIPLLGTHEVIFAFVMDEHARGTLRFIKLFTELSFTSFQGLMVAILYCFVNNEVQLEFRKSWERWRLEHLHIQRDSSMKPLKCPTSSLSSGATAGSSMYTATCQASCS

plaque inflammation = experiment: F-18 FDG PET of plaque inflammation (carotid TBR); assay type: in vivo, human
Experimental: Materials and methods: We retrospectively analyzed F-18 FDG PET scans of patients treated with I-131 rituximab for the first time for relapsed or refractory CD20(+) B cell lymphoma. F-18 FDG PET scans were performed before (PET1), 5 days (PET2), and 1 m (PET3) after the administration of I-131 rituximab. […] TBRs measured in PET1, PET2, and PET3 were designated as TBR1, TBR2, and TBR3, respectively. Statistical analysis was performed using the Wilcoxon-test for comparison between the groups. In addition, we divided patients into 2 groups (patients with higher TBR1 versus equal to or lower TBR1 than the median value of TBR1) and compared TBRs on each PET dataset.

[7] = In vitro stability in PBS and serum; assay type: in vitro ADME; conditions: 37 °C, after 5 h, starting radiochemical purity 94.3%
Experimental: (§2) The in vitro stability of the corresponding radiocomplexes was determined in PBS and human serum at 37 °C. […] Cell viability (10^4 cells/well) and clonogenic assay (10^3 cells/well) was performed with [^213Bi]Bi-3p-C-NETA-TATE using the same cell line.

[8] = tested on: SSTR2 expressing cells (BON-1.SSTR2); experiment: Cell binding and internalization; assay type: cell-based; conditions: BON-1.SSTR2, 60 min incubation
Experimental: as §2

BON-1.SSTR2 = experiment: Clonogenic assay; assay type: cell-based
Experimental: as §2

CXCR4 [9] = molecular target: CXCR4 (UniProt P61073); experiment: radioligand binding

fibrin, sequence (P02679 whole entry, looked up): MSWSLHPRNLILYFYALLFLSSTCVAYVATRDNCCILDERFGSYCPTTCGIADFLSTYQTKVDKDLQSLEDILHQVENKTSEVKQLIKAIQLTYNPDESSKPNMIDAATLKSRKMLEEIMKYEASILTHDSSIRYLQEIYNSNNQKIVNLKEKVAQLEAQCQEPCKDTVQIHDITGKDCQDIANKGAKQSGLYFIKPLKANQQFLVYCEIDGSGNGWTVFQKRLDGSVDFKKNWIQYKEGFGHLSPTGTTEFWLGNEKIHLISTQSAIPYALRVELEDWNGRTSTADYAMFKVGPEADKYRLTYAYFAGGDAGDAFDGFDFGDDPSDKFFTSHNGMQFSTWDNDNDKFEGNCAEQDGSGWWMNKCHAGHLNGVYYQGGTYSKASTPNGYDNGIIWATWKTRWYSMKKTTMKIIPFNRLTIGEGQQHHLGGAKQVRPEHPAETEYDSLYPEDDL
Experimental for platelet aggregation: as §1

With `CCCC[C@@H](C(=O)N[C@@H](CC(=O)O)C(=O)N[C@@H](Cc1cccc2ccccc12)C(N)=O)N(C)C(=O)[C@H](Cc1c[nH]c2ccccc12)NC(=O)CNC(=O)[C@H](Cc1ccc(O)cc1)NC(=O)[C@H](C)NC(=O)[C@@H](CCC(=O)O)NC(=O)CN1CCN(CC(=O)O)CCN(CC(=O)O)CCN(CC(=O)O)CC1` [DOTA-MGS5] the “maximum dose defined for the first therapeutic use” value [1] was 100 µg.

In the case of NOTA-rituximab: control IgG, the KD (HER2) is reported as “no binding”.

“HYNIC-Gly-Pro-Lys-Gly-Ala-Ala-Asp peptide” gave an other (fibrin) of 71.4%.

For [^177Lu]Lu-DOTA-MGS5 (peptide), the other [2] was 68% and the other [3] was 48.6%.

In the case of “HYNIC-Gly-Pro-Lys-Gly-Ala-Ala-Asp [HYNIC-GPLGAAD]”, the “stability in human plasma” value [4] is reported as 95% and the “effect on platelet aggregation” value (platelet aggregation) is reported as “no effect on platelet aggregation”.

Molecule AlF-NOTA-(2×)DV1(c11sc12s) (peptide) has an IC50 (CXCR4 [5]) of 1.3 nM.

With “NOTA-exendin-4 (from UniProt P26349 48-87) (peptide; other documents disagree on this pair)” the affinity [6] was < 11 nM.

In the case of “I-131 rituximab: radioimmunotherapy for CD20(+) B cell lymphoma”, the TBR1 (plaque inflammation; all 32 patients, PET1 before I-131 rituximab, mean and SD) is reported as 1.49 ± 0.28, the TBR2 (plaque inflammation; all 32 patients, PET2 5 days after, mean and SD, P = 0.008 vs TBR1) is reported as 1.36 ± 0.21 and the TBR3 (plaque inflammation; all 32 patients, PET3 1 m after, mean and SD, P = 0.002 vs TBR1) is reported as 1.35 ± 0.19. For the same molecule, the “mean TBR” value (plaque inflammation; patients with higher TBR1 (n = 16), PET1) was 1.69, the “mean TBR” value (plaque inflammation; patients with higher TBR1 (n = 16), PET2, P = 0.001) was 1.46 and the “mean TBR” value (plaque inflammation; patients with higher TBR1 (n = 16), PET3, P < 0.001) was 1.42. For the same molecule, the “mean TBR” value (plaque inflammation; patients with lower TBR1 (n = 16), PET1) was 1.29, the “mean TBR” value (plaque inflammation; patients with lower TBR1 (n = 16), PET2) was 1.26 and the “mean TBR” value (plaque inflammation; patients with lower TBR1 (n = 16), PET3) was 1.29.

With “NOTA-MI-exendin-4 (from UniProt P26349 48-87) (peptide)” the affinity [6] was < 11 nM.

For `C[C@@H](O)[C@H](NC(=O)[C@@H]1CSSC[C@H](NC(=O)[C@@H](Cc2ccccc2)NC(=S)Nc2ccc(CCCC(CN3CCN(CC(=O)O)CCN(CC(=O)O)CC3)N(CC(=O)O)CC(=O)O)cc2)C(=O)N[C@@H](Cc2ccc(O)cc2)C(=O)N[C@H](Cc2c[nH]c3ccccc23)C(=O)N[C@@H](CCCCN)C(=O)N[C@@H]([C@@H](C)O)C(=O)N1)C(=O)O` (stereo partly shown) [[^213Bi]Bi-3p-C-NETA-TATE, metal not drawn], the intact radiocomplex ([7]; PBS) was 90%, the remaining at 5 h ([7]; human serum, read-out: intact radiocomplex) was 90% and the cell binding [8] was 3.3 ± 0.5%. For the same molecule, the “internalized share of cell binding” value [8] was 39.2% and the “activity required for cell surviving fraction of 0.1 (SF0.1)” value (BON-1.SSTR2) was 0.1 MBq.

Work on AlF-NOTA-DV1-k-(DV3) (peptide) yielded a total-bound fraction (u87.CXCR4 cells) (CXCR4 [9]) of 6% and an IC50 (CXCR4 [5]) of 5.3 nM.

In the case of “DOTA-exendin-4 (from UniProt P26349 48-87) (peptide; other documents disagree on this pair)”, the affinity [6] is reported as < 11 nM.

With “DOTA-MI-exendin-4 (from UniProt P26349 48-87) (peptide)” the affinity [6] was < 11 nM.

Source: PMC10267539 (EJNMMI Radiopharmacy and Chemistry, 2023)
